Data as given in patent US7763596B2, “Selective glucocorticoid receptor agonists” (The University of Manchester, priority 2000, dated 2010).
Entries after “also recorded” stand apart in the source; their conditions may differ.

What was measured:
[1] = test system: tyrosine amino transferase (TAT); test: Quantitation of tyrosine amino transferase (TAT) in the livers of air pouch mice; type: in vivo; conditions: 3 μg i.p., FIG. 22
Description: (§1) At time 0, mice received either 0.5 ml of zymosan (1 mg) (group A, B, C) injected locally into the air-pouch. Group D and E were left untreated at this time-point. At 4 h post-zymosan the animals were placed in CO2. Air-pouches were then washed with 2 ml of PBS containing 3 mM EDTA, and livers were recovered and snap frozen for later analysis.
Quantitation of Tyrosine Amino Transferase (TAT) Protein in the Livers: In this method a colourimetric approach is used to quantitate TAT activity. The TAT enzyme catalyses the following reaction: L-tyrosine+2-oxoglutarate⇄4-hydroxyphenylpyruvate (pHPP)+L-glutamate
This reaction also requires pyridoxal phosphate (PLP) as a co-factor. Strong alkali conditions can then be used to convert pHPP to p-hydroxybenzaldehyde (pHBA) and oxalate. The amount of pHBA can then be assessed by measuring its absorbance at 331 nm (extinction coefficient 19,900 M^−1cm^−1) this figure is then assumed to be directly proportional to TAT activity. Livers were homogenized and the cells were stored on ice. […]
For each reaction a control reaction was set up without the ketoglutarate. […] The samples were incubated at room temperature for a further 30 mins and then the absorbance of each sample was assessed at 331 nm on a spectrophotometer (Ultrospec III, Pharmacia).

[2] = test system: zymosan induced neutrophil migration; test: Air pouch model of inflammation, zymosan induced neutrophil migration; type: in vivo, mice
Description: Male outbred Swiss albino mice (18-20 g body weight) were purchased from Bantin and Kingman (T.O. strain; Hull, Humberside) and maintained on a standard chow pellet diet with tap water ad libitum and a 12:00 h light/dark cycle. All animals were housed for 3 days prior to experimentation to allow body weight to reach 20-22 g. On the day of experiment mice ranged from 24-26 g.
Air-pouches were formed on the back of mice by air injection (2.5 ml s.c.) on day 0 and day 3 (Perretti and Flower, 1993).
Zymosan A was allowed to defrost at room temperature for 30 min prior to being added to sterile PBS at a concentration of 2 mg/ml forming a homogenous suspension.
as §1
The number of migrated leukocytes (≧90% polymorphonuclear leukocytes, PMN) was determined in the lavage fluid from each air-pouch, by taking an aliquot (100 μl) of the lavage fluid and diluting 1:10 in Turk's solution (0.01% crystal violet in 3% acetic acid). The samples were then vortexed and 10 μl of the stained cell solution were placed in a Neubauer haematocymometer and neutrophils numbers counted using a light microscope (Olympus B061).
Neutrophil numbers were compared between groups using ANOVA plus the Bonferroni test. TAT levels were compared using a t-test.

CCCNC(=O)C1(O)C(C)CC2C3CCC4=CC(=O)C=CC4(C)C3(F)C(O)CC21C (stereo not drawn) [Compound G]
liver TAT level compared with vehicle control groups [1]: does not cause-induction; also recorded: did not reduce the level of TAT
Neutrophils (10^6 per mouse) ([2]; 3 μg i.p. at -1 h, Zymosan 1 mg into air-pouch, 4 h time-point, mean ± S.E. of 8 mice): 6.33 ± 0.79 * 10^6 per mouse
reduction of neutrophil accumulation ([2]; 3 μg i.p., zymosan air pouch, 4 h): ~30%
